The values below come from PMC5814162, “Anticoagulants inhibit proteolytic clearance of plasma amyloid beta” (Oncotarget, 2017).

Test [1] has as its system plasma Aβ42 (FXII-FVII pathway). Put plainly: Plasma Aβ42 level in mice given synthetic Aβ42 after anticoagulant treatment (ELISA). The format is in vivo. The conditions noted are these: male C57BL/6 mice, anticoagulant once daily for 5 days (EP 0.1 and 0.5 mg/kg i.p.; DGT 22.5 and 45 mg/kg p.o.), Aβ42 40 μg/kg i.p. 1 h after final dose, blood 6 h later, vs vehicle, mean of n = 3, 'up to' over the two doses. As for the experimental part:
All experiments were approved by the Institutional Animal Care and Use Committee at the Roswell Park Cancer Institute under protocol 1022M. All mice were housed in individually ventilated pathogen-free cage systems equipped with HEPA filtered air supply and reverse osmosis purified water in a centralized vivarium facility. The facility is controlled with fully automated sensors for light (12-hour dark - 12-hour light cycle), temperature (70°F ± 2°F), humidity and airflow. All mice had free access to standard rodent diet (sterilizable Teklad #2018, with 6% fat and alfalfa free). C57BL/6NTac mice (male) were purchased from Taconic and used in two experiments. In the first experiment, mice at 8-9 weeks of age were treated with vehicle or an anticoagulant once daily for 5 days, and 1 h after the final treatment, the mice were treated with a single dose of Aβ42, followed by blood draw 6 h later. Blood was collected from the mice by cardiac puncture at the time of sacrifice by carbon dioxide and was collected into K3 EDTA-containing tubes (Multivette 600 from Sarstedt), from which plasma samples were prepared. […] Plasma concentrations of Aβ were determined by ELISA, which either detects both Aβ40 and Aβ42 [53] or specifically measures each peptide. […] Plasma concentration of FI was also measured by ELISA using a kit from GenWay Biotech. […]
On the technique in general: In an ELISA, binding on a coated surface is turned into a signal by an enzyme label.

Test [2] deals with FXII-FVII pathway. Put plainly: FXII-FVII pathway activation in J20 mice and WT littermates, effect of EP (Western blotting, FI by ELISA). The class given is in vivo. Conditions: EP 0.5 mg/kg i.p. once daily 5 days; for effect of EP on coagulation factor activation in J20 mice: blood 6 h after final treatment; for effect of EP on plasma FI level in WT littermates: ELISA. Here is the method: (§1) J20 mice were purchased from the Mutant Mouse Resource & Research Centers (MMRRC) via the Jackson Laboratory. Hemizygous male J20 mice in C57BL/6J background were bred with WT female mice (C57BL/6J, also from Jackson Laboratory). F1 hemizygous J20 mice were identified by PCR genotyping based on the Jackson Laboratory protocol (https://www/jax.org/strain/006293) and used for experiments. J20 mice and their WT littermates (at the age of 1, 3 and 6 months, male and female) were treated with EP or vehicle i.p. once daily for 5 days, and at 6 h after the last treatment, blood was drawn from the mice.
(§2) Plasma concentrations of Aβ were determined by ELISA, which either detects both Aβ40 and Aβ42 [53] or specifically measures each peptide. In the latter case, ELISA kits from Invitrogen (KHB3481 and KHB3441) were used. Plasma concentration of FI was also measured by ELISA using a kit from GenWay Biotech. The commercial kits were used by following the manufacturers’ instructions.
(§3) Each plasma sample (7.5 μl of plasma per sample) was mixed with 4x loading dye, heated at 95°C for 5 min, and resolved by SDS-PAGE. The separated proteins were transferred to polyvinylidene fluoride membrane, probed with specific antibodies, and detected using Luminata Classico or Luminata Cresendo (Millipore).
Background: Immunoblotting shows a protein as a band on a membrane.

A further test concerns plasma Aβ. Put plainly: Plasma Aβ level in J20 mice and WT littermates, ELISA measuring both Aβ40 and Aβ42. The format is in vivo. The conditions noted are these: EP 0.5 mg/kg i.p. once daily 5 days. As for the experimental part:
as §1, §2

The test system of test [3] is FXII-FVII pathway. Put plainly: Plasma coagulation factor activation in mice treated with EP and/or Aβ40 (Western blotting, FI by ELISA). The class given is in vivo. Conditions: male C57BL/6 mice; EP 0.5 mg/kg i.p. once daily 5 days, then Aβ40 40 μg/kg i.p.; blood 6 h later. Here is the method:
All experiments were approved by the Institutional Animal Care and Use Committee at the Roswell Park Cancer Institute under protocol 1022M. All mice were housed in individually ventilated pathogen-free cage systems equipped with HEPA filtered air supply and reverse osmosis purified water in a centralized vivarium facility. The facility is controlled with fully automated sensors for light (12-hour dark – 12-hour light cycle), temperature (70°F ± 2°F), humidity and airflow. All mice had free access to standard rodent diet (sterilizable Teklad #2018, with 6% fat and alfalfa free). C57BL/6NTac mice (male) were purchased from Taconic and used in two experiments. […]
(§4) Plasma concentrations of Aβ were determined by ELISA, which either detects both Aβ40 and Aβ42 [53] or specifically measures each peptide. […] Plasma concentration of FI was also measured by ELISA using a kit from GenWay Biotech. […]
as §3

Test [4] concerns brain astrocyte activation and Aβ accumulation. The conditions noted are these: APP23 mice; EP ∼2.5 mg/kg, i.p., 3 times weekly for 6 months; cited from earlier work. The source says: (§5) By inhibiting the FXII-FVII pathway, anticoagulants present an interesting dichotomy in impacting AD: Inhibiting procoagulant activity, potentially slowing or ameliorating AD, but also inhibiting plasma Aβ degradation, potentially contributing to brain Aβ accumulation. Indeed, increased coagulation is implicated in AD [42], but there is also evidence that peripheral Aβ moves to the brain [43]. The exact effect of anticoagulants on AD remains unclear. Treatment of AD mice (APP23 mice) with EP (∼2.5 mg/kg, i.p., 3 times weekly) for 6 months reduced brain astrocyte activation and Aβ accumulat ...

Test [5] relates to brain amyloid plaque load. The conditions noted are these: Tg2576 mice; chronic treatment with EP at the same dose regimen (∼2.5 mg/kg, i.p., 3 times weekly); cited from earlier work.
Source text: as §5

A further test has as its system plasma Aβ42. Put plainly: Plasma Aβ42 level in J20 mice and WT littermates, ELISA specific for Aβ42. The format is in vivo. The conditions noted are these: 3 months of age, EP 0.5 mg/kg i.p. once daily 5 days. As for the experimental part: as §1, §2
For test [6], the system named is plasma Aβ40 / endogenous Aβ (FXII-FVII pathway). Put plainly: Plasma Aβ level in mice treated with EP and/or Aβ40 (ELISA). The format is in vivo. Conditions: male C57BL/6 mice, EP 0.5 mg/kg i.p. once daily 5 days, n = 3. Here is the method:
All experiments were approved by the Institutional Animal Care and Use Committee at the Roswell Park Cancer Institute under protocol 1022M. All mice were housed in individually ventilated pathogen-free cage systems equipped with HEPA filtered air supply and reverse osmosis purified water in a centralized vivarium facility. The facility is controlled with fully automated sensors for light (12-hour dark – 12-hour light cycle), temperature (70°F ± 2°F), humidity and airflow. All mice had free access to standard rodent diet (sterilizable Teklad #2018, with 6% fat and alfalfa free). C57BL/6NTac mice (male) were purchased from Taconic and used in two experiments. In the first experiment, mice at 8–9 weeks of age were treated with vehicle or an anticoagulant once daily for 5 days, and 1 h after the final treatment, the mice were treated with a single dose of Aβ42, followed by blood draw 6 h later. Blood was collected from the mice by cardiac puncture at the time of sacrifice by carbon dioxide and was collected into K3 EDTA-containing tubes (Multivette 600 from Sarstedt), from which plasma samples were prepared. […]
as §4

A further test deals with plasma Aβ40. Put plainly: Plasma Aβ40 level in J20 mice and WT littermates, ELISA specific for Aβ40. The class given is in vivo. The conditions noted are these: 3 months of age, EP 0.5 mg/kg i.p. once daily 5 days. As for the experimental part: as §1, §2

In the case of `[H]/N=C(/N)c1ccc(NCc2nc3cc(C(=O)N(CCC(=O)O)c4ccccn4)ccc3n2C)cc1` [DGT, dabigatran], in test [1], the “increase in plasma level of Aβ42” value was “up to 21.3 fold”.

Take enoxaparin [EP]: the “effect of EP on coagulation factor activation in J20 mice” value with FXII-FVII pathway [2] (1 month of age, male and female) was “greatly attenuated the activation of FX, FII, FVII and FI”; in the test with FXII-FVII pathway [2] (3 and 6 months of age), “strongly inhibited the activation of FX, FII, FVII and FI”. The “effect of EP on plasma FI level in WT littermates” value with FXII-FVII pathway [2] (1 month of age) is “only slightly elevated FI level”; with FXII-FVII pathway [2] (3 and 6 months of age) it was “slightly elevate FI level”. Also, in test [1], the “increase in plasma level of Aβ42” value is on record as “up to 73.3 fold”. Moreover, the “ratio of EP-induced increase in plasma Aβ level in J20 mice over that in the WT littermates” value with plasma Aβ (1 month of age, female) was 8.7; with plasma Aβ (1 month of age, male), 9.3; in the test on plasma Aβ (3 months of age, female) it was 56.9; with plasma Aβ (3 months of age, male), 47.5; with plasma Aβ (6 months of age, female), 51.2; in the test with plasma Aβ (6 months of age, male), 40.4. Besides, the “ratio of EP-induced increase in plasma Aβ level in J20 mice over that in the WT littermates” value with plasma Aβ42 (Aβ42, female) is given as 63.6; with plasma Aβ42 (Aβ42, male) it was 47.3; in the test with plasma Aβ40 (Aβ40, female), 40.1; in the test with plasma Aβ40 (Aβ40, male), 45.7. The “increase in plasma Aβ concentration after EP treatment” value in the test with plasma Aβ (J20 mice, 1 month of age, male or female, n = 3) is given as 2.3 fold. Besides, the “increase in plasma Aβ level after EP treatment” value in the test with plasma Aβ (J20 mice, 3 months of age, female, n = 3) is on record as 4.2 fold; in the test on plasma Aβ (J20 mice, 3 months of age, male, n = 3) it was 3.7 fold; in the test on plasma Aβ (J20 mice, 6 months of age, female, n = 3), 3.6 fold; with plasma Aβ (J20 mice, 6 months of age, male, n = 3) it was 3.4 fold. Also, in the test on plasma Aβ (WT littermates, regardless of age or gender, blood 6 h after final treatment, n = 3), the “elevation of plasma Aβ concentration” value is recorded as “approximately 1.6 fold”. Also, in the test on FXII-FVII pathway [3], the “effect of EP on Aβ40-induced activation of coagulation factors” value is “prevents the activation of FX, FII, FVII and FI”. Moreover, in test [4], the “effect on brain astrocyte activation and Aβ accumulation” value is “reduced brain astrocyte activation and Aβ accumulation”. For the same molecule, the “effect on brain amyloid plaque load” value in [5] is recorded as “significantly increased brain amyloid plaque load”. The “increase in plasma level of Aβ42 after EP treatment” value with plasma Aβ42 (J20 mice, female) is on record as 4.7 fold; in the test with plasma Aβ42 (J20 mice, male) it was 4.3 fold; in the test on plasma Aβ42 (WT littermates, female), 1.6 fold; in the test with plasma Aβ42 (WT littermates, male), 1.7 fold. Also, the “increase in plasma level of exogenously administered Aβ40” value in test [6] (Aβ40 40 μg/kg i.p. 1 h after last dose, blood 6 h later) is reported as 77.4 fold. The “elevation of plasma level of endogenous Aβ” value in test [6] (no Aβ40 injected) is reported as 1.7 fold. For the same molecule, the “increase in plasma level of Aβ40 after EP treatment” value in the test with plasma Aβ40 (J20 mice, female) is 4.3 fold; with plasma Aβ40 (J20 mice, male), 3.6 fold; in the test with plasma Aβ40 (WT littermates, female), 1.9 fold; in the test with plasma Aβ40 (WT littermates, male), 1.6 fold.
